From patent US6268478A, “Intracellular vitamin D binding protein” (Cedars-Sinai Medical Center, priority 1997, dated 2001)

Molecular target: IDBP (Saguinus oedipus, UniProt Q9N1U2)
Assay: Competitive displacement of [3H]25-OHD3 from IDBP in unfractionated 100,000×g supernatant extracts of B95-8 cells (competitive protein binding assay, dextran-coated charcoal)
Parameters: post-nuclear 100,000xg supernatant of B95-8 marmoset lymphoblasts and partly purified column fractions; species or system Callithrix jacchus (common marmoset)
Conditions: for RBI (Relative Binding Index): relative ability of maximally effective concentration to displace [3H]25-OHD3, 25-OHD3 assigned 100, unfractionated 100,000×g supernatant of B95-8 cells; for ability to competitively displace [3H]25-OHD3 binding (FIG. 1A): 100 nM competitor, 2 nM [3H]25-OHD3; for binding / displacement of [3H]25-OHD3 by vitamin D2 metabolites and synthetic analogues (FIG. 2B): unfractionated B95-8 extracts, 4 nM [3H]25-OHD3; for competition of non-vitamin D steroids and bioactive lipids with 25-OHD3 for binding: crude post-nuclear / 100,000×g supernatant extracts of B95-8 cells
Source text: Culture and Extraction of B95-8 Cells. The B-lymphoblastoid cell line B95-8 was obtained from the American Type Culture Collection (ATCC, Manassas, Va.). This cell line was established by EBV transformation of blood leukocytes from the vitamin D-resistant new world primate, Callithrix jacchus (common marmoset). The cell line was maintained in RPMI-1640 medium (Irvine Scientific, Irvine, Calif.) routinely supplemented with 10% fetal calf serum (FCS; Gemini BioProducts, Calabasas, Calif.), 100 units/ml penicillin, 100 μg/ml streptomycin, 2 mM L-glutamine (both from Gibco-BRL, Grand Island, N.Y.) in an atmosphere of 95% air-5% CO2.
Confluent cultures were harvested by agitation to dislodge clumps of lymphoblasts that were weakly adherent to the plastic flask. Harvested cells were pelleted and washed twice in ice cold phosphate-buffered saline (PBS; 20 mM Na2 HPO4 and 150 mM NaCl, pH 7.2). The pelleted cells were then resuspended in ETD buffer (1 mM EDTA, 10 mM Tris-HCl, 5 mM dithiothreitol, pH 7.4) containing 1 mM phenylmethylsulfonylflouride and homogenized by Polytron on ice in five 15-second bursts. Nuclei with associated nuclear steroid receptor proteins, were pelleted at 4,000×g for 30 minutes at 4° C. The post-nuclear supernatant of this spin was then subjected to high-speed centrifugation at 100,000×g for 1 hour at 4° C. The resulting "100,000×g supernatant" was either aliquoted and stored at […] for further study, used in competitive ligand binding analyses, or subjected to further purification as described below in Example II.
Ligand Binding Analyses. The ability of the unfractionated 100,000×g supernatant extracts of B95-8 cells and individual column […] of increasing concentrations of radioinert compounds (see Table I) was performed by competitive protein binding assay as previously described in Gacad et al. Bone Min. Res. 8:27-35 (1993).
[…] […] […] […] The binding assay conditions were the same as those stated above except that specific binding was determined in ETD-0.3 M Na2 HPO4 buffer (pH 6.8).

IDBP, sequence (Q9N1U2 whole entry): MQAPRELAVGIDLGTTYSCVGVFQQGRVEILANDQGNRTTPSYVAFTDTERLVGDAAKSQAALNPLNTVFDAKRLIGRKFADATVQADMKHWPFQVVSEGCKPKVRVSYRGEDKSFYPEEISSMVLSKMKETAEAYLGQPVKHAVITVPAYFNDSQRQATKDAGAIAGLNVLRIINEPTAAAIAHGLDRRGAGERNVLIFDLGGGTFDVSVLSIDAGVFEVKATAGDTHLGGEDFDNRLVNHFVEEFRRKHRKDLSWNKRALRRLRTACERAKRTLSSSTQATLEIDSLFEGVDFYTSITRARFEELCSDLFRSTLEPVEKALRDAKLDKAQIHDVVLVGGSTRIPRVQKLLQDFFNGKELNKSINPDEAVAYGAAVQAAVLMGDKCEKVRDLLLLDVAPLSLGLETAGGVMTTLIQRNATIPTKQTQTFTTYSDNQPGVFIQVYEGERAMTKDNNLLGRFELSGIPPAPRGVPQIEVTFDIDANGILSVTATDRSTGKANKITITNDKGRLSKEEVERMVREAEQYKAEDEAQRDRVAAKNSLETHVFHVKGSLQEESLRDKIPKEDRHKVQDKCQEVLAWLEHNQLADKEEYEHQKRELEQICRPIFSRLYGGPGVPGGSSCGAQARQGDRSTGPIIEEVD

Compound | RBI (Relative Binding Index) | further results
CC#C[C@]1(O)CC[C@H]2[C@@H]3CCC4=CC(=O)CCC4=C3[C@@H](c3ccc(N(C)C)cc3)C[C@@]21C [RU486] | 0 | 
CC/C(=C(\c1ccccc1)c1ccc(OCCN(C)C)cc1)c1ccccc1 [Tamoxifen] | 0 | 
C[C@]12CCC(=O)C=C1CC[C@@H]1[C@@H]2[C@@H](O)C[C@]2(C=O)[C@@H](C(=O)CO)CC[C@@H]12 [Aldosterone] | 0 | 
C=C1CC[C@H](O)C/C1=C/C=C1\CCC[C@]2(C)[C@@H]([C@H](C)CCCC(C)(O)CO)CC[C@@H]12 (stereo partly shown) [25,26-(OH)2D3] | 70 | ability to competitively displace [3H]25-OHD3 binding (FIG. 1A): roughly equivalent in their ability to competitively inhibit
C[C@]12CC[C@H](O)CC1=CC[C@@H]1[C@@H]2CC[C@]2(C)C(=O)CC[C@@H]12 [DHEA] | 0 | 
C=C1/C(=C\C=C2/CCC[C@]3(C)[C@@H]([C@H](C)/C=C/C=C/C(O)(CC)CC)CC[C@@H]23)C[C@@H](O)C[C@@H]1O [EB1089] | 0 | binding / displacement of [3H]25-OHD3 by vitamin D2 metabolites and synthetic analogues (FIG. 2B): none of the C-1-hydroxylated nonhypercalcemic analogues MC903, EB1089 and KH1060 (FIG. 2A) were able to displace [^3 H]25-OHD3 binding
C=C1CC[C@H](O)C/C1=C/C=C1\CCC[C@]2(C)[C@@H]([C@H](C)CCCC(C)C)CC[C@@H]12 [Vltamin D3, cholecalciferol] | 0 | ability to competitively displace [3H]25-OHD3 binding (FIG. 1A): ineffective as a competitive ligand
C[C@]12C[C@H](O)[C@H]3[C@@H](CCC4=CC(=O)CC[C@@]43C)[C@@H]1CC[C@@H]2C(=O)CO [Corticosterone (B), Corticosterone] | 0 | 
C=C1CC[C@H](O)C/C1=C/C=C1\CCC[C@]2(C)[C@@H]([C@H](C)/C=C/[C@H](C)C(C)C)CC[C@@H]12 [Vitamin D2, ergocalciferol] | 0 | 
CC(C)CCC[C@@H](C)[C@H]1CC[C@H]2C3=CC=C4C[C@@H](O)CC[C@]4(C)[C@H]3CC[C@]12C [7-Dehydrocholesterol] | 0 | 
CC(=O)[C@H]1CC[C@H]2[C@@H]3CCC4=CC(=O)CC[C@]4(C)[C@H]3CC[C@]12C [Progesterone] | 19 | competition of non-vitamin D steroids and bioactive lipids with 25-OHD3 for binding: competitively displaces [^3 H]25-OHD3
C=C1/C(=C\C=C2/CCC[C@]3(C)[C@@H]([C@H](C)CCCC(C)C)CC[C@@H]23)C[C@@H](O)C[C@@H]1O [1-OHD3] | 0 | ability to competitively displace [3H]25-OHD3 binding (FIG. 1A): incapable of displacing [^3 H]25-OHD3
C[C@@H]1C[C@H]2[C@@H]3CCC4=CC(=O)C=C[C@]4(C)[C@@]3(F)[C@@H](O)C[C@]2(C)[C@@]1(O)C(=O)CO [Dexamethasone] | 0 | 
CC(=O)[C@H]1CC[C@H]2[C@@H]3CC=C4C[C@@H](O)CC[C@]4(C)[C@H]3CC[C@]12C [Pregnenolone] | 0 | 
C=C1CC[C@H](O)C/C1=C/C=C1\CCC[C@]2(C)[C@@H]([C@H](C)/C=C/[C@H](C)C(C)(C)O)CC[C@@H]12 [25-OHD2, 25-hydroxy vitamin D2] | 100 | binding / displacement of [3H]25-OHD3 by vitamin D2 metabolites and synthetic analogues (FIG. 2B): bound in unfractionated extracts equivalently to 25-OHD3 and 1,25-(OH)^2 D3
C=C1/C(=C\C=C2/CCC[C@]3(C)[C@@H]([C@H](C)CCC(O)C(C)(C)O)CC[C@@H]23)C[C@@H](O)CC1O (stereo partly shown) [1,24,25-(OH)3D3] | 36 | ability to competitively displace [3H]25-OHD3 binding (FIG. 1A): significantly decreased effective competitive binding; displacement of 25-OHD3 (competitor at 10^-7 M, 0.1 µM): 20%; displacement of 25-OHD3 at lower concentrations (competitor concentrations below 10^-7 M): no apparent displacement at lower concentrations
C[C@]12CC[C@@H]3c4ccc(O)cc4CC[C@H]3[C@@H]1CC[C@@H]2O [17β-Estradiol] | 33 | competition of non-vitamin D steroids and bioactive lipids with 25-OHD3 for binding: competitively displaces [^3 H]25-OHD3
CCCCC/C=C\C/C=C\C/C=C\C/C=C\CCCC(=O)O [Arachidonic acid] | 0 | 
CC1=C(/C=C/C(C)=C/C=C/C(C)=C/C(=O)O)C(C)(C)CCC1 [All-trans Retinoic acid] | 0 | 

Compound | RBI (Relative Binding Index) | further results
C[C@]12CC[C@H]3[C@@H](CCC4=CC(=O)CC[C@@]43C)[C@@H]1CC[C@@H]2C(=O)CO [Deoxycorticosterone (DOC), Deoxycorticosterone] | 0 | 
C=C1/C(=C\C=C2/CCC[C@]3(C)[C@@H]([C@H](C)/C=C/[C@@H](O)C4CC4)CC[C@@H]23)C[C@@H](O)C[C@@H]1O [Calcipotriol (MC903), Calcipotriol] | 0 | binding / displacement of [3H]25-OHD3 by vitamin D2 metabolites and synthetic analogues (FIG. 2B): none of the C-1-hydroxylated nonhypercalcemic analogues MC903, EB1089 and KH1060 (FIG. 2A) were able to displace [^3 H]25-OHD3 binding
C=C1/C(=C\C=C2/CCC[C@]3(C)[C@@H]([C@H](C)/C=C/[C@H](C)C(C)(C)O)CC[C@@H]23)C[C@@H](O)C[C@@H]1O [1,25-(OH)2D2, 1,25-dihydroxyvitamin D2] | 35 | binding / displacement of [3H]25-OHD3 by vitamin D2 metabolites and synthetic analogues (FIG. 2B): bound in unfractionated extracts equivalently to 25-OHD3 and 1,25-(OH)^2 D3
Androstendiol | 0 | 
CC(C)CCC[C@@H](C)[C@H]1CC[C@H]2[C@@H]3CC=C4C[C@@H](O)CC[C@]4(C)[C@H]3CC[C@]12C [Cholesterol] | 0 | 
CC(C)[C@@H](C)/C=C/[C@@H](C)[C@H]1CC[C@H]2/C(=C/C=C3\C[C@@H](O)CC[C@@H]3C)CCC[C@]12C [Dihydrotachysterol] | 0 | ability to competitively displace [3H]25-OHD3 binding (FIG. 1A): incapable of displacing [^3 H]25-OHD3
C[C@]12CCC(=O)C[C@@H]1CC[C@@H]1[C@@H]2CC[C@]2(C)[C@@H](O)CC[C@@H]12 [5-Dihydroxytestosterone] | 0 | competition of non-vitamin D steroids and bioactive lipids with 25-OHD3 for binding: none of the six steroid precursor molecules, glucocorticoids, mineralocorticoids, or the major intracellular metabolite of testosterone, 5-dihydrotestosterone, were capable ligands
C[C@]12CC[C@H]3[C@@H](CCC4=CC(=O)CC[C@@]43C)[C@@H]1CC[C@@H]2O [Testosterone] | 30 | competition of non-vitamin D steroids and bioactive lipids with 25-OHD3 for binding: competitively displaces [^3 H]25-OHD3
C[C@]12CCC(=O)C=C1CC[C@@H]1[C@@H]2CC[C@]2(C)C(=O)CC[C@@H]12 [Androstendione] | 0 | 
CC1=C(/C=C/C(C)=C\C=C\C(C)=C\C(=O)O)C(C)(C)CCC1 [9-cis Retinoic acid] | 0 | 
CCCCC[C@H](O)/C=C/[C@H]1[C@H](O)CC(=O)[C@@H]1C/C=C\CCCC(=O)O [PGE2] | 0 | 
C[C@]12CCC(=O)C=C1CC[C@@H]1[C@@H]2C(=O)C[C@@]2(C)[C@H]1CC[C@]2(O)C(=O)CO [Cortisone] | 0 | 
C=C1CC[C@H](O)C/C1=C/C=C1\CCC[C@]2(C)[C@@H]([C@H](C)CCC(O)C(C)(C)O)CC[C@@H]12 (stereo partly shown) [24,25-(OH)2D3] | 72 | ability to competitively displace [3H]25-OHD3 binding (FIG. 1A): roughly equivalent in their ability to competitively inhibit
C[C@]12CCC(=O)C=C1CC[C@@H]1[C@@H]2[C@@H](O)C[C@@]2(C)[C@H]1CC[C@]2(O)C(=O)CO [Hydrocortisone] | 0 | 
C=C1/C(=C\C=C2/CCC[C@]3(C)[C@@H]([C@@H](C)OCCCC(O)(CC)CC)CC[C@@H]23)C[C@@H](O)C[C@@H]1O [KH1060] | 0 | binding / displacement of [3H]25-OHD3 by vitamin D2 metabolites and synthetic analogues (FIG. 2B): none of the C-1-hydroxylated nonhypercalcemic analogues MC903, EB1089 and KH1060 (FIG. 2A) were able to displace [^3 H]25-OHD3 binding
CCCCC[C@H](O)/C=C/[C@@H]1[C@@H](C/C=C\CCCC(=O)O)[C@@H](O)C[C@H]1O [PGF2alpha] | 0 | 
C[C@H](CCCC(C)(C)O)[C@H]1CC[C@H]2[C@@H]3CC=C4C[C@@H](O)CC[C@]4(C)[C@H]3CC[C@]12C [25-Hydroxycholesterol] | 0 | competition of non-vitamin D steroids and bioactive lipids with 25-OHD3 for binding: none of these evaluated compounds were able to compete with 25-OHD3 for binding
C[C@]12CC[C@H](OS(=O)(=O)O)CC1=CC[C@@H]1[C@@H]2CC[C@]2(C)C(=O)CC[C@@H]12 [DHEAS] | 0 | 
